Data on 42 compounds can be found in US20040052824A1, “Micellar colloidal pharmaceutical composition containing a lipophilic active principle” (priority 2000, published 2004).

Like-named read-outs stand apart in the source and are kept apart here. Bounds are passed on as bounds.

For data set [1] the following is noted: cited from earlier work.
The conditions of data set [2]: cited from earlier work. This is another data set of the same source.
For data set [3] the following is noted: cited from earlier work. The source holds these as a separate data set.
The nature of data set [4]: dissolution trials: solubility of the active principle in the cosurfactant. The format is physicochemical.
Where [5] appears, read: octanol/water partition coefficient.

In general, log P refers to a log measure of how a compound divides between an organic and an aqueous phase. As to `COC(=O)Nc1nc2ccc(C(=O)c3ccccc3)cc2[nH]1` [mebendazole], the “log P” value in data set [1] (setting [5]) is reported as 3.10.

`CCCSc1ccc2nc(NC(=O)OC)[nH]c2c1` [albendazole]: the “log P” value in data set [1] is reported as 3.22.

In the case of `O=C(Nc1ccc(Br)cc1)c1cc(Br)ccc1O` [dibromosalan], the “log P” value in data set [1] (setting [5]) is recorded as 5.18.

Consider `CCCc1nc2c(C)cc(-c3nc4ccccc4n3C)cc2n1Cc1ccc(-c2ccccc2C(=O)O)cc1` [telmisartan], for which, in data set [1] (setting [5]), the “log P” value is 4.8.

In the case of `CC(C)(Oc1ccc(C2CC2(Cl)Cl)cc1)C(=O)O` (centres unmarked) [ciprofibrate], in data set [1] (setting [5]), the “log P” value is 3.15.

With `CO[C@@H]1[C@@H](O[C@@H]2O[C@H](C)[C@@H](O[C@H]3C[C@@](C)(O)[C@@H](OC(=O)CC(C)C)[C@H](C)O3)[C@H](N(C)C)[C@H]2O)[C@@H](CC=O)C[C@@H](C)[C@@H](O)/C=C/C=C/C[C@@H](C)OC(=O)C[C@H]1OC(C)=O` [josamycin], the “log P” value in data set [1] (setting [5]) is 2.39.

As for `COC(=O)Nc1nc2ccc(Sc3ccccc3)cc2[nH]1` [fenbendazole], the “log P” value in data set [1] (setting [5]) is given as 4.26.

With `Cc1cccc(Nc2ccccc2C(=O)O)c1C` [mefenamic acid], the “log P” value in data set [1] (setting [5]) was 5.3.

In the case of `CC(C)(C)c1ccc(C(O)CCCN2CCC(C(O)(c3ccccc3)c3ccccc3)CC2)cc1` (centres unmarked) [terfenadine], in data set [1] (setting [5]), the “log P” value is reported as 3.22.

With `O=C(Nc1ccc(Oc2ccc(Cl)cc2)c(Cl)c1)c1cc(I)cc(I)c1O` [rafoxanide], the “log P” value in data set [1] (setting [5]) was 8.75.

Take `Cc1c2ccncc2c(C)c2c1[nH]c1ccccc12` [ellipticine]: the “log P” value in data set [1] (setting [5]) is given as 4.80.

Take `OC(c1cc(C(F)(F)F)nc2c(C(F)(F)F)cccc12)C1CCCCN1` (centres unmarked) [mefloquin]: in data set [1] (setting [5]), the “log P” value is on record as 3.36.

Consider ivermectin, for which, in data set [2], the “solubility in water” value is reported as “practically insoluble in water”. Further, the “partition coefficient chloroform/water: log P” value in data set [3] (chloroform/water) is 3. For the same compound, the “partition coefficient ethyl acetate/water: log P” value in data set [3] (ethyl acetate/water) is 4.

Take `CCOC(=O)C(C)(C)Oc1ccc(Cl)cc1` [clofibrate]: the “log P” value in data set [1] (setting [5]) is listed as 3.65.

`CC(=O)O[C@@]12CO[C@@H]1C[C@H](O)[C@@]1(C)C(=O)[C@H](O)C3=C(C)[C@@H](OC(=O)[C@H](O)[C@@H](NC(=O)OC(C)(C)C)c4ccccc4)C[C@@](O)([C@@H](OC(=O)c4ccccc4)[C@H]21)C3(C)C` [docetaxel]: the “solubility in water” value in data set [2] is “insoluble in water”.

In the case of `Cc1ccc(C)c(OCCCC(C)(C)C(=O)O)c1` [gemfibrozil], the log partition coefficient (log P) in data set [1] (setting [5]) is 3.90.

In the case of `Cc1cc(C(C#N)c2ccc(Cl)cc2)c(Cl)cc1NC(=O)c1cc(I)cc(I)c1O` (centres unmarked) [closantel], in data set [1] (setting [5]), the “log P” value is > 7.

`CN(C/C=C/C#CC(C)(C)C)Cc1cccc2ccccc12` [terbinafin]: the “log P” value in data set [1] (setting [5]) is on record as 5.42.

With `CC[C@H]1OC(=O)[C@H](C)[C@@H](O[C@H]2C[C@@](C)(OC)[C@@H](O)[C@H](C)O2)[C@H](C)[C@@H](O[C@@H]2O[C@H](C)C[C@H](N(C)C)[C@H]2O)[C@](C)(O)C[C@@H](C)/C(=N\OCOCCOC)[C@H](C)[C@@H](O)[C@]1(C)O` [roxithromycin], in data set [1] (setting [5]), the lipophilicity (log P) is reported as ~2.5.

For `CC[C@H](C)C(=O)O[C@H]1C[C@@H](C)C=C2C=C[C@H](C)[C@H](CC[C@@H]3C[C@@H](O)CC(=O)O3)[C@H]21` [lovastatin], the “log P” value in data set [1] (setting [5]) is 4.04.

In the case of `CC1=CC(=O)c2ccccc2C1=O` [menadione], the “log P” value in data set [1] (setting [5]) is given as 8.

Turning to `CCOC(=O)C1=C(C)NC(C)=C(C(=O)OC)C1c1cccc([N+](=O)[O-])c1` (centres unmarked) [nitrendipine], the “log P” value in data set [1] (setting [5]) is reported as 3.7.

As to `Cc1c([N+](=O)[O-])cc(C(C)(C)C)c(O)c1C(=O)Nc1ccc(Br)cc1C(F)(F)F` [bromoxanide], in data set [1] (setting [5]), the log partition coefficient (log P) is reported as 5.65.

`CCC(C)n1ncn(-c2ccc(N3CCN(c4ccc(OCC5COC(Cn6cncn6)(c6ccc(Cl)cc6Cl)O5)cc4)CC3)cc2)c1=O` (centres unmarked) [itraconazole]: in data set [1] (setting [5]), the “log P” value is on record as 5.68.

For `CC[C@H](C)C(=O)O[C@H]1CCC=C2C=C[C@H](C)[C@H](CC[C@@H]3C[C@@H](O)CC(=O)O3)[C@H]21` [mevastatin], in data set [1] (setting [5]), the log partition coefficient (log P) was 3.52.

On to `CC(=O)Oc1c(I)cc(I)cc1C(=O)Nc1ccc(Cl)cc1` [clioxanide], for which the log partition coefficient (log P) in data set [1] (setting [5]) is listed as 5.45.

For the compound `CC1=C(/C=C/C(C)=C/C=C/C(C)=C\C(=O)O)C(C)(C)CCC1` [isotretinoin, 13-cis-retinoic acid], the “solubility in monoethyl ether of diethylene glycol (Transcutol)” value in data set [4] (cosurfactant Transcutol) is 3%.

As for `O=C1c2ccccc2C(=O)C1c1ccccc1` [phenyl indanedione], the “log P” value in data set [1] (setting [5]) is listed as 2.90.

Consider `CSc1nc2cc(Cl)c(Oc3cccc(Cl)c3Cl)cc2[nH]1` [triclabendazole], for which, in data set [1] (setting [5]), the “log P” value was 6.45.

Regarding `CC1=C(/C=C/C(C)=C/C=C/C(C)=C/CO)C(C)(C)CCC1` [retinol], the “log P” value in data set [1] (setting [5]) is on record as 5.68.

For `CC(C)C(=O)Nc1ccc([N+](=O)[O-])c(C(F)(F)F)c1` [flutamide], the “log P” value in data set [1] (setting [5]) is listed as 3.5.

For `CC(=O)[C@H]1CC[C@H]2[C@@H]3CCC4=CC(=O)CC[C@]4(C)[C@H]3CC[C@]12C` [progesterone], in data set [4] (cosurfactant Capryol), the “solubility in propylene glycol monocaprylate (Capryol)” value amounted to 5%.

Regarding `CCN(CC)C(=O)Nc1ccc(OCC(O)CNC(C)(C)C)c(C(C)=O)c1` (centres unmarked) [celiprolol], in data set [1] (setting [5]), the “log P” value is 2.07.

`Cc1nccn1CC1CCc2c(c3ccccc3n2C)C1=O` (centres unmarked) [ondansetron]: the “log P” value in data set [1] (setting [5]) is listed as 2.63.

Regarding `COC(=O)[C@@H]1[C@H]2C[C@H]3c4[nH]c5ccccc5c4CCN3C[C@@H]2CC[C@@H]1O` [yohimbine], in data set [1] (setting [5]), the “log P” value is listed as 2.73.

As for `CC(=O)O[C@H]1C(=O)[C@@]2(C)[C@H]([C@H](OC(=O)c3ccccc3)[C@]3(O)C[C@H](OC(=O)[C@H](O)[C@@H](NC(=O)c4ccccc4)c4ccccc4)C(C)=C1C3(C)C)[C@]1(OC(C)=O)CO[C@@H]1C[C@@H]2O` [paclitaxel], in data set [2], the “solubility in water” value is listed as “insoluble in water”.

Take `O=C(Nc1cc(Cl)cc(Cl)c1O)c1c(O)c(Cl)cc(Cl)c1Cl` [oxyclozanide]: the “log P” value in data set [1] (setting [5]) is recorded as 5.35.

Consider `OCCSCCCCCCCCCCSCCO` [tiadenol], for which the lipophilicity (log P) in data set [1] (setting [5]) was 4.58.

For the compound `CC(=O)Oc1c(Br)cc(Cl)cc1C(=S)Nc1ccc(Br)cc1` [brotianide], the “log P” value in data set [1] (setting [5]) is listed as 5.30.

`O=C(Nc1ccc(Br)cc1)c1cc(Br)cc(Br)c1O` [tribromosalan]: the “log P” value in data set [1] (setting [5]) is reported as 5.86.

`c1ccc2[nH]c(-c3cscn3)nc2c1` [tiabendazole]: the “log P” value in data set [1] (setting [5]) is 2.31.

Consider `CC(C)(Oc1ccc(CCNC(=O)c2ccc(Cl)cc2)cc1)C(=O)O` [bezafibrate], for which the lipophilicity (log P) in data set [1] (setting [5]) is 3.53.
